What was measured:
NIS = target: T1, NIS (Rattus norvegicus, UniProt Q63008); format: in vivo
T1 construct: from tissue; host or cells: living female rats (nubile and lactating): thyroid, stomach, lactating mammary gland
T1 sequence (Q63008 1-618): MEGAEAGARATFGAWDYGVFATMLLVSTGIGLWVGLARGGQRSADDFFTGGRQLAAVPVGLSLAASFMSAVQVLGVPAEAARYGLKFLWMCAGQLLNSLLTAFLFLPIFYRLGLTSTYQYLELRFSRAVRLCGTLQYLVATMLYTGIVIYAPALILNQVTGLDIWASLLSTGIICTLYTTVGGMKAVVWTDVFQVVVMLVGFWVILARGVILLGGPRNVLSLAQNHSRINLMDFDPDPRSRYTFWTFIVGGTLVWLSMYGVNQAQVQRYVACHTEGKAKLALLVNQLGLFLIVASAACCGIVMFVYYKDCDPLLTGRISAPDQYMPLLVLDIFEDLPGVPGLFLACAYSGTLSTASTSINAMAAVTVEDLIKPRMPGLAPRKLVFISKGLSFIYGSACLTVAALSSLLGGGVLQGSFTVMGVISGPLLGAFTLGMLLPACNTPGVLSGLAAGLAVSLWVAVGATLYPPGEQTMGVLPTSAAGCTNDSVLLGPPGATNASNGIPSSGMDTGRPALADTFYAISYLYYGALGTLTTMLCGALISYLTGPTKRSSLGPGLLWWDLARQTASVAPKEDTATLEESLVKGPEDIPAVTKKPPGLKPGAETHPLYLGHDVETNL
Experimental: FIG. 1. Characterization of I^− accumulation and NIS expression in rat lactating MG and stomach. (A)-(C) In vivo scintigraphic imaging of ^99mTcO4^− injected adult female rats. (A) Radiotracer (1.5 mCi) was injected into the tail vein of nubile animals, and pin-hole images of the body were obtained at 30 min post-injection. (B) Lactating rats were imaged 5 min after ^99mTcO4^− injection. (C) To ascertain inhibition of ^99mTcO4^− uptake, ^99mTcO4^− and 20 mg perchlorate were co-injected into the tail vein, followed by static imaging at 5 min. (D) Immunoblot analysis. Membrane fractions isolated from rat tissues were electrophoresed, electrotransferred onto nitrocellulose, and immunoblotted with affinity-purified anti-NIS antibody (Ab) and horseradish peroxidase (HRP) linked anti-rabbit IgG (Amersham-Pharmacia, Piscataway, N.J.). Approximately 40 μg of membrane fractions were incubated (either with or without N-glycosidase F) overnight at 37° C., followed by SDS polyacrylamide gel electrophoresis and Western blot analysis. Lanes 1 and 2: thyroid; lanes 4 and 5: lactating MG; lanes 7 and 8: stomach; lane 10: non-lactating MG; lane 11: muscle; and lane 12: lung. […]

mgNIS [1] = target: T2, mgNIS (Mus musculus, UniProt Q99PN0); format: in vivo, mice; set-up: Membrane fractions isolated from MG of nubile female mice; from tissue; host or cells: CD1 (ICR) mice (intact, ovariectomized, gestating) and MMTV-ras / MMTV-neu transgenic mice: mammary gland, mammary adenocarcinoma, stomach
T2 sequence (Q99PN0 1-618): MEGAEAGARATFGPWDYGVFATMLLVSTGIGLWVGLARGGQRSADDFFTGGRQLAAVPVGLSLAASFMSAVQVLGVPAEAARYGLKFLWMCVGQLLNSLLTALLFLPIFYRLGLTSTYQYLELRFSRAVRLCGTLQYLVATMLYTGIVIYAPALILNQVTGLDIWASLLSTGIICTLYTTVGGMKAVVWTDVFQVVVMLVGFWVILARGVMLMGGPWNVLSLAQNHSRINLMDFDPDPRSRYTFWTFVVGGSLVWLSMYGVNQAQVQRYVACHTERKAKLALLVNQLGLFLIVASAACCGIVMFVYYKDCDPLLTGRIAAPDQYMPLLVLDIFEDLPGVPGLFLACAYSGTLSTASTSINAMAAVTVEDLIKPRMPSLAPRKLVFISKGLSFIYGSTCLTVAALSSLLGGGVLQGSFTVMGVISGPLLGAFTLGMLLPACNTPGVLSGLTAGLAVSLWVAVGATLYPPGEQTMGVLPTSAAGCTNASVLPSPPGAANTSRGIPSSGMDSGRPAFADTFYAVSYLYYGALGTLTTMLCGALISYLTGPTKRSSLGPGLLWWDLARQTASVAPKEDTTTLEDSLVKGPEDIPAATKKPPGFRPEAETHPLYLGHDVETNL
Experimental: Analysis of mammary adenocarcinomas in MMTV-ras and MMTV-neu transgenic mice. (A) Photograph of MMTV-ras transgenic mouse with a mammary adenocarcinoma. Transgenic mice were anaesthetized with intramuscular sodium pentobarbital injections. […] (E) Dynamic curves of percent injected dose per pixel were calculated by drawing regions of interest around tumoral tissue and the mediastinum, and dividing the counts per pixel (average counts) within each region of interest by the initial whole-body count value, thereby yielding a percent injected dose per pixel. (F) Immunoblot analysis of membrane fractions isolated from MMTV-ras tumor with anti-NIS Ab. (I) Immunoblot analysis of membrane fractions isolated from MMTV-neu tumors with anti-NIS Ab. In an MMTV-neu mouse with two adjacent mammary glands containing tumors, each tumor is indicated with an arrow and numbered. Lanes “tu1”, “tu2”, and “mg” correspond to proteins extracted from tumor 1, tumor 2, and contralateral normal mammary gland, respectively.
To assess whether specific active I^− uptake (a result of mgNIS expression) occurred in the mammary tumoral cells, transgenic animals were imaged in vivo with either ^131I^− or ^99mTcO4^−. […] Quantification of the accumulation of the various tracers in the tumor, as a function of time, is also shown for the ras mouse.

mgNIS [2] = target: T3, mgNIS (Homo sapiens, UniProt Q92911); experiment: 99mTc-pertechnetate scintigraphy of a person with locally-advanced breast cancer; format: in vivo; conditions: whole-body scan, invasive ductal carcinoma
T3 construct: from tissue; host or cells: person with locally-advanced invasive ductal carcinoma of the breast (whole-body scan)
T3 sequence (Q92911 1-643): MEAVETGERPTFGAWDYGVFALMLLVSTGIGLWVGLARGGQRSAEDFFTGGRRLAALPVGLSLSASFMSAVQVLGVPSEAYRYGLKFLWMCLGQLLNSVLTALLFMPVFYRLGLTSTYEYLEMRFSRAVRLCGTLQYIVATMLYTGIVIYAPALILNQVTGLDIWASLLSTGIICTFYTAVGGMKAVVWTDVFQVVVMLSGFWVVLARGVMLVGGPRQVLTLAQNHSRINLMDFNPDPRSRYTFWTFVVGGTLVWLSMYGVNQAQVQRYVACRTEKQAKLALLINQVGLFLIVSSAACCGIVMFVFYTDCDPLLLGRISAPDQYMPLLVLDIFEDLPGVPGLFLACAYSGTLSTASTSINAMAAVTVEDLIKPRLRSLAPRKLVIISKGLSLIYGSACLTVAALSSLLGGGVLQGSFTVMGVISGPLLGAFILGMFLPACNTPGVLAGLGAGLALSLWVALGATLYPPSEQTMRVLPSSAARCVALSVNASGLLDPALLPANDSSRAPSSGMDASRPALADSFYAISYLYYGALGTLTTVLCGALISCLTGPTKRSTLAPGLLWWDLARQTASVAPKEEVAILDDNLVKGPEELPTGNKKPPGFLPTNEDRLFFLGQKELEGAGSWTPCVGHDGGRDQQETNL
Source text: FIG. 7. ^99mTc-pertechnetate scintigraphy of a person with a locally-advanced cancer of the right breast and an enlarged thyroid. The patient was scanned after injection of 15 mCi of ^99mTc-labeled pertechnetate (^99mTcO4^−). Tracer accumulates in the thyroid and stomach. Tracer is present in the heart and liver due to vascular pooling. The arrow indicates distinct accumulation in the area of the breast cancer.
The results obtained from the studies on transgenic mice, and the similarity between the human breast cancer immunohistochemical patterns and those observed in thyroid cancer, indicate the likelihood that mgNIS expressed in human breast tumors is active. Clearly, the most direct way to determine the activity of mgNIS in breast cancer is to subject patients to scintigraphic evaluation with ^99mTcO4^−. One patient who was undergoing neoadjuvant hormonal therapy for locally-advanced breast cancer presented initially with an enlarged thyroid. Accordingly, they underwent whole-body ^99mTcO4^− scanning.

mgNIS [3] = target: T2, mgNIS; conditions: mice, 18th day of gestation, subcutaneous injection
Experimental: Animals at indicated days of gestation (3rd, 11th, or 18th) received a single dose of 1 μCi ^125I^− by subcutaneous injection in 100 μl of PBS. One hour later, MG were surgically removed, and radioactivity was quantified in a γ-counter (LKB 1282 Compugamma, Md.). Obtained values were standardized according to the weight of MG removed from each mouse, and were expressed as the ratio of radioiodide in MG tissue versus blood.

mgNIS [4] = target: T2, mgNIS; experiment: Ex vivo scintigraphic imaging of 99mTcO4- accumulation in organs of oxytocin-treated nubile mice; set-up: Membrane fractions isolated from MG of nubile female mice; from tissue; host or cells: CD1 (ICR) mice (intact, ovariectomized, gestating) and MMTV-ras / MMTV-neu transgenic mice: mammary gland, mammary adenocarcinoma, stomach; conditions: 2 mg perchlorate with tracer
Experimental: FIG. 3. In vivo effect of oxytocin on functional expression of mgNIS in nubile mice. (A) Radioiodide transport in MG of oxytocin-treated nubile mice. Seven- to eight-week-old female mice were treated subcutaneously with phosphate buffered saline solution (PBS), 10 I.U. of prolactin (PRL), 1 I.U. of oxytocin (OXY), or prolactin and oxytocin (PRL+OXY) for three days. Then, 1 μCi of ^125I^− was injected intraperitoneally. […] (B) Immunoblot analysis of MG from hormonally-treated mice. […] Isolated membrane fractions were electrophoresed, electrotransferred onto nitrocellulose, and analyzed by immunoblots using anti-NIS Ab. […] Perchlorate-inhibited accumulation of ^99mTcO4^− was detected in stomach and MG of OXY-treated animals. (D) Quantification of ^99mTcO4^− accumulation in various organs from OXY- or PBS-treated mice. Tracer accumulation was monitored using image analysis software (ImageQuant, Macintosh). […] Counts were divided by the weight of the organs (cpm/mg tissue), and standardized by dividing them by cpm detected in the blood (cpm/mg blood) of each animal. ^99mTcO4^− accumulation in the organs from: PBS-treated animals (open bars); OXY-treated animals (dotted bars); and OXY-treated animals after ^99mTcO4^−+perchlorate injection (dark bars). […]

[5] = lactating rats, single intraperitoneal injection

## [O]=[99Tc](=[O])(=[O])[O-] [^99mTcO4^−, ^99mTc-pertechnetate]
NIS; lactating rats, tail vein injection
  time to concentration of 99mTcO4- in all pairs of MGs: ≤ 5 min
mgNIS [1]; MMTV-ras and MMTV-neu mice, tail vein injection
  tracer accumulation in mammary tumor: accumulated in the stomach and tumor
mgNIS [2]
  tracer distribution in patient with breast tumor: concentrated in the area of this patient's breast tumor

## [125IH] [^125I^−, radioiodide]
Lactating rat
  125I- concentration in lactating MG: concentrated in lactating MG
[5]
  125I- concentration in milk with respect to blood: > 60 fold
  time of saturation of 125I- accumulation in milk: ~2 h
rat, in vivo
  125I- concentration in skeletal muscle or non-lactating MG: not concentrated
mgNIS [3]
  accumulation of radioiodide in MG compared with blood concentration: 15 fold

## [O-][Cl+3]([O-])([O-])O [perchlorate]
NIS; lactating rat, 20 mg perchlorate co-injected, imaging at 5 min
  effect on 99mTcO4- concentration in thyroid, stomach, and lactating MG: effectively prevented
mgNIS [1]; co-injected with the isotope
  effect on 99mTcO4- accumulation in tumor and stomach: prevented
mgNIS [4]
  effect on 99mTcO4- accumulation in organs: inhibited

From patent publication US7303740B2, “Methods for the diagnosis and treatment of breast cancer” (Albert Einstein College of Medicine of Yeshiva University, priority 2000, dated 2007)
